Results: US20140243194A1, “Fungicidal substituted 1--1H-[1,2,4]triazole compounds” (BASF SE, priority 2011, published 2014)

Tests used:
Puccinia recondita = experiment: Preventative control of brown rust on wheat caused by Puccinia recondita (Puccrt P7); assay type: in vivo; conditions: 250 ppm spray; wheat inoculated seven days later; untreated plants 90% infected
Experimental: The spray solutions were prepared in several steps: The stock solution were prepared: a mixture of acetone and/or dimethylsulfoxide and the wetting agent/emulsifier Wettol, which is based on ethoxylated alkylphenoles, in a relation (volume) solvent-emulsifier of 99 to 1 was added to 25 mg of the compound to give a total of 5 ml. Water was then added to total volume of 100 ml. This stock solution was diluted with the described solvent-emulsifier-water mixture to the given concentration. G3. Preventative Control of Brown Rust on Wheat Caused by Puccinia recondita (Puccrt P7) The first two developed leaves of pot-grown wheat seedling were sprayed to run-off with an aqueous suspension, containing the concentration of active ingredient or their mixture as described below. Seven days later the plants were inoculated with spores of Puccinia recondita. To ensure the success the artificial inoculation, the plants were transferred to a humid chamber without light and a relative humidity of 95 to 99% and 20 to 24° C. for 24 h. Then the trial plants were cultivated for 6 days in a greenhouse chamber at 20-24° C. and a relative humidity between 65 and 70%. The extent of fungal attack on the leaves was visually assessed as % diseased leaf area.

Botrytis cinerea [1] = experiment: Preventative fungicidal control of Botrytis cinerea on leaves of green pepper (Botrci P1); assay type: in vivo; conditions: 150 ppm spray; green pepper inoculated next day; % diseased leaf area after 5 days; untreated control 100
Experimental: The spray solutions were prepared in several steps: The stock solution were prepared: a mixture of acetone and/or dimethylsulfoxide and the wetting agent/emulsifier Wettol, which is based on ethoxylated alkylphenoles, in a relation (volume) solvent-emulsifier of 99 to 1 was added to 25 mg of the compound to give a total of 5 ml. Water was then added to total volume of 100 ml. This stock solution was diluted with the described solvent-emulsifier-water mixture to the given concentration. G1 Preventative Fungicidal Control of Botrytis cinerea on Leaves of Green Pepper (Botrci P1) Young seedlings of green pepper were grown in pots to the 4 to 5 leaf stage. These plants were sprayed to run-off with an aqueous suspension, containing the concentration of active ingredient or their mixture mentioned in the table below. The next day the plants were inoculated with a aqueous biomalt solution containig the spore suspension of Botrytis cinerea. Then the plants were immediately transferred to a humid chamber. After 5 days at 22 to 24° C. and a relative humidity close to 100% the extent of fungal attack on the leaves was visually assessed as % diseased leaf area.

Septoria tritici [2] = experiment: Preventative control of leaf blotch on wheat caused by Septoria tritici (Septtr P7); assay type: in vivo; conditions: 16 ppm spray, wheat inoculated seven days later
Experimental: The spray solutions were prepared in several steps: The stock solution were prepared: a mixture of acetone and/or dimethylsulfoxide and the wetting agent/emulsifier Wettol, which is based on ethoxylated alkylphenoles, in a relation (volume) solvent-emulsifier of 99 to 1 was added to 25 mg of the compound to give a total of 5 ml. Water was then added to total volume of 100 ml. This stock solution was diluted with the described solvent-emulsifier-water mixture to the given concentration. G2. Preventative Control of Leaf Blotch on Wheat Caused by Septoria tritici (Septtr P7) Leaves of pot-grown wheat seedling were sprayed to run-off with an aqueous suspension of the active compound or their mixture, prepared as described. The plants were allowed to air-dry. Seven days later the plants were inoculated with an aqueous spore suspension of Septoria tritici. Then the trial plants were immediately transferred to a humid chamber at 18-22° C. and a relative humidity close to 100%. After 4 days the plants were transferred to a chamber with 18-22° C. and a relative humidity close to 70%. After 4 weeks the extent of fungal attack on the leaves was visually assessed as % diseased leaf area. […]

Septoria tritici [3] = experiment: Curative control of leaf blotch on wheat caused by Septoria tritici (Septtr K7); assay type: in vivo; conditions: 250 ppm spray seven days after inoculation (curative), untreated control 90
Experimental: The spray solutions were prepared in several steps: The stock solution were prepared: a mixture of acetone and/or dimethylsulfoxide and the wetting agent/emulsifier Wettol, which is based on ethoxylated alkylphenoles, in a relation (volume) solvent-emulsifier of 99 to 1 was added to 25 mg of the compound to give a total of 5 ml. Water was then added to total volume of 100 ml. This stock solution was diluted with the described solvent-emulsifier-water mixture to the given concentration. G2 Curative Control of Leaf Blotch on Wheat Caused by Septoria tritici (Septtr K7) Leaves of pot-grown wheat seedling were inoculated with an aqueous spore suspension of Septoria tritici. Then the trial plants were immediately transferred to a humid chamber at 18-22° C. and a relative humidity close to 100%. After 4 days the plants were transferred to a chamber with 18-22° C. and a relative humidity close to 70%. Seven days after inoculation the plants were sprayed to run-off with an aqueous suspension of the active compound or their mixture, prepared as described. Then the plants were transferred back to the chamber with 18-22° C. and a relative humidity close to 70%. After 4 weeks the extent of fungal attack on the leaves was visually assessed as % diseased leaf area.

Phakopsora pachyrhizi = experiment: Protective control of soy bean rust on soy beans caused by Phakopsora pachyrhizi (Phakpa P2); assay type: in vivo; conditions: 250 ppm spray; soy bean inoculated 2 days later; untreated control 90
Experimental: The spray solutions were prepared in several steps:
The stock solution were prepared: a mixture of acetone and/or dimethylsulfoxide and the wetting agent/emulsifier Wettol, which is based on ethoxylated alkylphenoles, in a relation (volume) solvent-emulsifier of 99 to 1 was added to 25 mg of the compound to give a total of 5 ml. Water was then added to total volume of 100 ml. This stock solution was diluted with the described solvent-emulsifier-water mixture to the given concentration.
G3 Protective Control of Soy Bean Rust on Soy Beans Caused by Phakopsora pachyrhizi (Phakpa P2)
Leaves of pot-grown soy bean seedlings were sprayed to run-off with an aqueous suspension, containing the concentration of active ingredient or their mixture as described below. The plants were allowed to air-dry. The trial plants were cultivated for 2 days in a greenhouse chamber at 23-27° C. and a relative humidity between 60 and 80%. Then the plants were inoculated with spores of Phakopsora pachyrhizi. To ensure the success the artificial inoculation, the plants were transferred to a humid chamber with a relative humidity of about 95% and 20 to 24° C. for 24 h. The trial plants were cultivated for fourteen days in a greenhouse chamber at 23-27° C. and a relative humidity between 60 and 80%. The extent of fungal attack on the leaves was visually assessed as % diseased leaf area.

Botrytis cinerea [4] = experiment: Long lasting control of Botrytis cinerea on leaves of green pepper (Botrci P7); assay type: in vivo; conditions: 63 ppm spray; green pepper inoculated 7 days later; untreated control 100
Experimental: The spray solutions were prepared in several steps: The stock solution were prepared: a mixture of acetone and/or dimethylsulfoxide and the wetting agent/emulsifier Wettol, which is based on ethoxylated alkylphenoles, in a relation (volume) solvent-emulsifier of 99 to 1 was added to 25 mg of the compound to give a total of 5 ml. Water was then added to total volume of 100 ml. This stock solution was diluted with the described solvent-emulsifier-water mixture to the given concentration. G4 Long Lasting Control of Botrytis cinerea on Leaves of Green Pepper (Botrci P7) Young seedlings of green pepper were grown in pots to the 4 to 5 leaf stage. These plants were sprayed to run-off with an aqueous suspension, containing the concentration of active ingredient or their mixture mentioned in the table below. The plants were then cultivated in the greenhouse for 7 days and then inoculated with a aqueous biomalt solution containig the spore suspension of Botrytis cinerea. Then the plants were immediately transferred to a humid chamber. After 5 days at 22 to 24° C. and a relative humidity close to 100% the extent of fungal attack on the leaves was visually assessed as % diseased leaf area.

Alternaria solani = experiment: Microtest: activity against early blight caused by Alternaria solani (Alteso); assay type: cell-based; conditions: micro titer plate, 405 nm, 7 days after inoculation, relative growth vs compound-free control (100%)
Experimental: Microtest The active compounds were formulated separately as a stock solution having a concentration of 10000 ppm in dimethyl sulfoxide. M1: Activity Against Early Blight Caused by Alternaria solani (Alteso) The stock solutions were mixed according to the ratio, pipetted onto a micro titer plate (MTP) and diluted with water to the stated concentrations. A spore suspension of Alternaria solani in an aqueous biomalt or yeast-bactopeptone-glycerine solution was then added. The plates were placed in a water vapor-saturated chamber at a temperature of 17° C. Using an absorption photometer, the MTPs were measured at 405 nm 7 days after the inoculation. The measured parameters were compared to the growth of the active compound-free control variant (100%) and the fungus-free and active compound-free blank value to determine the relative growth in % of the pathogens in the respective active compounds.

Row | SMILES | infection (% diseased leaf area) Puccrt P7 (Puccinia recondita) [%] | Disease (%) at 150 ppm Botrci P1 (Botrytis cinerea [1]) [%] | Disease (%) at 16 ppm Septtr P7 (Septoria tritici [2]; % diseased leaf area after 4 weeks, untreated control 90) [%] | Disease (%) at 16 ppm Septtr P7 (Septoria tritici [2]; section C table) [%] | Disease (%) at 250 ppm Septtr K7 (Septoria tritici [3]) [%] | Disease (%) at 250 ppm Phakpa P2 (Phakopsora pachyrhizi) [%] | Disease (%) at 63 ppm Botrci p7 (Botrytis cinerea [4]) [%] | Growth (%) at 0.008 ppm Alteso (Alternaria solani) [%]
1 | C#CCOC(Cn1cncn1)(c1ccc(Oc2ccc(Cl)cc2)cc1Cl)C(C)C (centres unmarked) [I-4, 1-[2-[2-chloro-4-(4-chlorophenoxy)phenyl]-3-methyl-2-prop-2-ynoxy-butyl]-1,2,4-triazole] | 0 | – | – | – | – | – | – | –
2 | C#CCOC(Cn1cncn1)c1ccc(Oc2ccc(Cl)cc2)cc1Cl (centres unmarked) [DE 3801223 table 1, compound 30] | – | 60 | 60 | 60 | 40 | 70 | 80 | 48
